{"source": "patent US20120135975A1", "about": "“Substituted Esters as Cannabinoid-1 Receptor Modulators” (MERCK & CO., INC., priority 2006, published 2012)", "key": {"[1]": {"molecular_target": "T1, recombinant human CB2 receptor (Homo sapiens, UniProt P34972)", "T1 construct": "expressed in transfected cells", "T1 sequence (P34972 whole entry)": "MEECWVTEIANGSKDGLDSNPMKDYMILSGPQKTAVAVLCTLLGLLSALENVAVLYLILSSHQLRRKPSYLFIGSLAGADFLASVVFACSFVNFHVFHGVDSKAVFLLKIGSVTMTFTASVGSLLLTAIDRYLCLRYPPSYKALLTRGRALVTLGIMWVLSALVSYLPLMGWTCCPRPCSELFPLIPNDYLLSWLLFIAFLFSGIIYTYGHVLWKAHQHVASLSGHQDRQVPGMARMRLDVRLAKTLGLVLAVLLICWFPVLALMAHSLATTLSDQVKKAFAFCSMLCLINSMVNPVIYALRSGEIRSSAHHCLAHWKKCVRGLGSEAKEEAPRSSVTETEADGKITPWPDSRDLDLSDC", "test": "CB2 receptor functional assay (cAMP)", "type": "cell-based", "conditions": "CB2 receptor expressed in CHO cells", "procedure": "(§1) The functional activation of CB1 receptor is based on recombinant human CB1 receptor expressed in CHO cells (Felder et al, Mol. Pharmacol. 48: 443-450, 1995). To determine the agonist activity or inverse agonist activity of any test compound, 50 μL of CB1-CHO cell suspension are mixed with test compound and 70 uL assay buffer containing 0.34 mM 3-isobutyl-1-methylxanthine and 5.1 μM of forskolin in 96-well plates. The assay buffer is comprised of Earle's Balanced Salt Solution supplemented with 5 mM MgCl2, 1 mM glutamine, 10 mM HEPES, and 1 mg/mL bovine serum albumin. The mixture is incubated at room temperature for 30 minutes, and terminated by adding 30 μl/well of 0.5M HCl. The total intracellular cAMP level is quantitated using the New England Nuclear Flashplate and cAMP radioimmunoassay kit.\n(§2) To determine the antagonist activity of test compound, the reaction mixture also contains 0.5 nM of the agonist CP55940, and the reversal of the CP55940 effect is quantitated. Alternatively, a series of dose response curves for CP55940 is performed with increasing concentration of the test compound in each of the dose response curves.\nThe functional assay for the CB2 receptor is done similarly with recombinant human CB2 receptor expressed in CHO cells."}, "[2]": {"molecular_target": "T2, recombinant human CB1 receptor (Homo sapiens, UniProt P21554)", "T2 construct": "expressed in transfected cells", "T2 sequence (P21554 whole entry)": "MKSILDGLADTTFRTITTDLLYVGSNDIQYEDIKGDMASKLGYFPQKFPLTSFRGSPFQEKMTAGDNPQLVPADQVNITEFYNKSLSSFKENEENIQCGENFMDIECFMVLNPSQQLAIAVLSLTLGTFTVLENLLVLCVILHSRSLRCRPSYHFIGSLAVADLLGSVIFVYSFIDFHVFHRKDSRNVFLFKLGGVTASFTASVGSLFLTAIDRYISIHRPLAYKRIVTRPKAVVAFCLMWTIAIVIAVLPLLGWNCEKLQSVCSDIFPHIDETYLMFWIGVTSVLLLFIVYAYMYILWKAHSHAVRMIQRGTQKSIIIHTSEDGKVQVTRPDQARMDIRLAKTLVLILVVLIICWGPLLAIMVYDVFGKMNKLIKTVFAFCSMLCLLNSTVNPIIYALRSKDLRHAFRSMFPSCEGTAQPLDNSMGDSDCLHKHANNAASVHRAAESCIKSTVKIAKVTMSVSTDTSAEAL", "test": "Cannabinoid Receptor-1 (CB1) functional activity assay (cAMP)", "type": "cell-based", "conditions": "CB1-CHO cells, forskolin-stimulated cAMP", "procedure": "as §1, §2"}, "[3]": {"molecular_target": "T2, recombinant human CB1 receptor", "test": "Cannabinoid Receptor-1 (CB1) binding assay", "conditions": "[3H]CP-55940 0.6 nM, receptor expressed in CHO cells", "procedure": "(§3) Binding affinity determination is based on recombinant human CB1 receptor expressed in Chinese Hamster Ovary (CHO) cells (Felder et al, Mol. Pharmacol. 48: 443-450, 1995). Total assay volume is 250 μL (240 μL CB1 receptor membrane solution plus 5 μL test compound solution plus 5 μL [3H]CP-55940 solution). Final concentration of [3H]CP-55940 is 0.6 nM. Binding buffer contains 50 mM Tris-HCl, pH7.4, 2.5 mM EDTA, 5 mM MgCl2, 0.5 mg/mL fatty acid free bovine serum albumin and protease inhibitors (Cat#P8340, from Sigma). To initiate the binding reaction, 5 μL of radioligand solution is added, the mixture is incubated with gentle shaking on a shaker for 1.5 hours at 30° C. The binding is terminated by using 96-well harvester and filtering through GF/C filter presoaked in 0.05% polyethylenimine. The bound radiolabel is quantitated using scintillation counter. Apparent binding affinities for various compounds are calculated from IC50 values (DeBlasi et al., Trends Pharmacol Sci 10: 227-229, 1989)."}, "[4]": {"molecular_target": "T1, recombinant human CB2 receptor", "test": "CB2 receptor binding assay", "conditions": "receptor expressed in CHO cells", "procedure": "as §3\nThe binding assay for CB2 receptor is done similarly with recombinant human CB2 receptor expressed in CHO cells."}}}
{"smiles": "C[C@H](NC(=O)C(C)(C)OC(=O)c1c(Cl)cccc1Cl)[C@@H](Cc1ccc(Cl)cc1)c1cccc(C#N)c1", "note": "[Example 30, N-(3-(4-chlorophenyl)-2(S)-(3-cyanophenyl)-1(S)-methylpropyl)-2-(2,6-dichloro-benzoyloxy)-2-methyl-propanamide]", "values": [{"measurement": "% max in the CB2 functional assay", "setting": "[1]", "result": "−192", "unit": "% max"}, {"measurement": "EC50", "setting": "[1]", "result": 0.162, "unit": "µM"}, {"measurement": "% max in the CB1 functional assay", "setting": "[2]", "result": "−157", "unit": "% max"}, {"measurement": "EC50", "setting": "[2]", "result": 0.00185, "unit": "µM"}, {"measurement": "IC50", "setting": "[3]", "result": 0.00254, "unit": "µM"}, {"measurement": "IC50", "setting": "[4]", "result": 0.811, "unit": "µM"}]}
